Experimental data taken from patent EP4635500A1, “THERAPEUTIC AGENT FOR BACTERIAL INFECTION” (Sumitomo Pharma Co., Ltd., priority 2022, dated 2024).
Converted amounts (≈) assume the structure as drawn. Read-outs that look alike come from different tables or passages of the source.

How the values were obtained:
Format in all cases: cell-based
Acinetobacter baumannii = test: MIC and MBC, broth microdilution (Example 4, Table 3)
Escherichia coli = test: MIC, broth microdilution, standard strains and Japanese clinical isolates (Example 5, Table 4)
Klebsiella pneumoniae = test: as above
Enterobacter cloacae = test: as above
Enterobacter hormaechei = test: as above; conditions: ATCCBAA2082; KUB4001 Enterobacter hormaechei ATCC BAA-2082, KPC-2
Providencia rettgeri = test: as above; conditions: ATCCBAA2525; KUB4010 Providencia rettgeri ATCC BAA-2525, OXA-181
CRE and CPE strains = test: MIC, broth microdilution, standard strains and Japanese clinical isolates (Example 5, Table 4 continued; organism of each KUB strain not given)
[1] = Acinetobacter baumannii CDC-303 (OXA-23, OXA-66)

## CC(C)(O/N=C(\C(=O)N[C@@H]1C(=O)N2C(C(=O)[O-])=C(C[n+]3ccccc3)CS[C@H]12)c1csc(N)n1)C(=O)O [CAZ, ceftazidime]
Acinetobacter baumannii; [1]
  MBC/MIC ratio: 2
  MIC: 64 µg/mL (≈ 117 µM)
Acinetobacter baumannii; Acinetobacter baumannii CDC-304 (OXA-66, OXA-72)
  MBC/MIC ratio: 1
Acinetobacter baumannii; Acinetobacter baumannii CDC-304 (OXA-66, OXA-72), read-out: MIC
  MIC: 64 µg/mL (≈ 117 µM)
Acinetobacter baumannii; Acinetobacter baumannii, Acinetobacter baumannii CDC-33 (NDM-1, OXA-94)
  MBC: > 128 µg/mL
Acinetobacter baumannii; Acinetobacter baumannii, Acinetobacter baumannii CDC-33 (NDM-1, OXA-94), read-out: MIC
  MIC: > 128 µg/mL
Acinetobacter baumannii; Acinetobacter baumannii, Acinetobacter baumannii CDC-101 (OXA-24, OXA-65)
  MBC: > 128 µg/mL
Acinetobacter baumannii; Acinetobacter baumannii, Acinetobacter baumannii CDC-101 (OXA-24, OXA-65), read-out: MIC
  MIC: > 128 µg/mL
Acinetobacter baumannii; Acinetobacter baumannii, Acinetobacter baumannii CDC-303 (OXA-23, OXA-66)
  MBC: 128 µg/mL (≈ 234 µM)
Acinetobacter baumannii; Acinetobacter baumannii, Acinetobacter baumannii CDC-304 (OXA-66, OXA-72)
  MBC: 64 µg/mL (≈ 117 µM)
Escherichia coli; ATCCBAA2452, KUB4005 Escherichia coli ATCC BAA-2452, NDM-1
  MIC: > 32 µg/mL
Escherichia coli; ATCCBAA2471, KUB4007 Escherichia coli ATCC BAA-2471, NDM-6
  MIC: > 32 µg/mL
Klebsiella pneumoniae; ATCCBAA1898, KUB3996 Klebsiella pneumoniae ATCC BAA-1898, KPC-2
  MIC: > 32 µg/mL
Klebsiella pneumoniae; ATCCBAA1899, KUB3997 Klebsiella pneumoniae ATCC BAA-1899, KPC-2
  MIC: > 32 µg/mL
Klebsiella pneumoniae; ATCCBAA1900, KUB3998 Klebsiella pneumoniae ATCC BAA-1900, KPC-3
  MIC: > 32 µg/mL
Klebsiella pneumoniae; ATCCBAA1904, KUB3999 Klebsiella pneumoniae ATCC BAA-1904, KPC-3
  MIC: 16 µg/mL (≈ 29.3 µM)
Klebsiella pneumoniae; ATCCBAA2078, KUB4000 Klebsiella pneumoniae ATCC BAA-2078, KPC-3
  MIC: > 32 µg/mL
Klebsiella pneumoniae; ATCCBAA2146, KUB4011 Klebsiella pneumoniae ATCC BAA-2146, NDM-1
  MIC: > 32 µg/mL
Klebsiella pneumoniae; ATCCBAA2342, KUB4003 Klebsiella pneumoniae ATCC BAA-2342, KPC-3
  MIC: > 32 µg/mL
Klebsiella pneumoniae; ATCCBAA2343, KUB4004 Klebsiella pneumoniae ATCC BAA-2343, KPC-3
  MIC: > 32 µg/mL
Klebsiella pneumoniae; ATCCBAA2472, KUB4008 Klebsiella pneumoniae subsp. Pneumoniae ATCC BAA-2472, NDM-1
  MIC: > 32 µg/mL
Klebsiella pneumoniae; ATCCBAA2473, KUB4009 Klebsiella pneumoniae ATCC BAA-2473, NDM-1
  MIC: > 32 µg/mL
Klebsiella pneumoniae; KUB3631 Klebsiella pneumoniae Clinical isolate, IMP-1
  MIC: > 32 µg/mL
Klebsiella pneumoniae; KUB3633 Klebsiella pneumoniae Clinical isolate, IMP-6
  MIC: 32 µg/mL (≈ 58.5 µM)
Klebsiella pneumoniae; KUB3634 Klebsiella pneumoniae Clinical isolate, IMP-6
  MIC: 16 µg/mL (≈ 29.3 µM)
Klebsiella pneumoniae; KUB3635 Klebsiella pneumoniae Clinical isolate, IMP-1
  MIC: > 32 µg/mL
Enterobacter cloacae; ATCCBAA2341, KUB4002 Enterobacter cloacae ATCC BAA-2341, KPC-3
  MIC: > 32 µg/mL
Enterobacter cloacae; ATCCBAA2468, KUB4006 Enterobacter cloacae ATCC BAA-2468, NDM-1
  MIC: > 32 µg/mL
Enterobacter hormaechei
  MIC: > 32 µg/mL
Providencia rettgeri
  MIC: > 32 µg/mL
CRE and CPE strains; strain KUB3148, carbapenemase gene KPC-3, read-out: MIC
  MIC: > 32 µg/mL
CRE and CPE strains; strain KUB3149, carbapenemase gene NDM-1, read-out: MIC
  MIC: > 32 µg/mL
CRE and CPE strains; strain KUB3150, carbapenemase gene OXA-48, read-out: MIC
  MIC: 1 µg/mL (≈ 1.83 µM)
CRE and CPE strains; strain KUB3151, carbapenemase gene IMP-1, read-out: MIC
  MIC: > 32 µg/mL
CRE and CPE strains; strain KUB3152, carbapenemase gene KPC-2, read-out: MIC
  MIC: 32 µg/mL (≈ 58.5 µM)
CRE and CPE strains; strain KUB3153, carbapenemase gene KPC-3, read-out: MIC
  MIC: > 32 µg/mL
CRE and CPE strains; strain KUB3154, carbapenemase gene KPC-2, read-out: MIC
  MIC: 32 µg/mL (≈ 58.5 µM)
CRE and CPE strains; strain KUB3158, carbapenemase gene OXA-48
  MIC: 0.5 µg/mL (≈ 0.915 µM)
CRE and CPE strains; strain KUB3169, carbapenemase gene Unidentified
  MIC: 8 µg/mL (≈ 14.6 µM)
CRE and CPE strains; strain KUB3170, carbapenemase gene Unidentified
  MIC: 8 µg/mL (≈ 14.6 µM)
CRE and CPE strains; strain KUB3171, carbapenemase gene -
  MIC: 8 µg/mL (≈ 14.6 µM)
